The numbers were not newly measured in PMC5517430, “2,3,7,8-Tetrachlorodibenzo-p-dioxin (TCDD)-elicited effects on bile acid homeostasis: Alterations in biosynthesis, enterohepatic circulation, and microbial metabolism” (Scientific Reports, 2017), which cites them from elsewhere.

The test system of this data set is FXR. Further details: method as in PMID 23395169. The note with it: cited from earlier work.

Turning to `C[C@H](CCC(=O)NCCS(=O)(=O)O)[C@H]1CC[C@H]2[C@@H]3[C@@H](O)[C@@H](O)[C@@H]4C[C@H](O)CC[C@]4(C)[C@H]3CC[C@]12C` [T-β-MCA], the FXR antagonism entry is given as “competitive antagonists”. Take `C[C@H](CCC(=O)NCCS(=O)(=O)O)[C@H]1CC[C@H]2[C@@H]3[C@H](O)[C@@H](O)[C@@H]4C[C@H](O)CC[C@]4(C)[C@H]3CC[C@]12C` [T-α-MCA, tauro-α-muricholic acid]: the FXR antagonism result is “competitive antagonists”.
